Data as given in patent US20080004290A1, “Anti-Cancer Agents” (THE UNIVERSITY OF QUEENSLAND, priority 2003, published 2008).
Where two headings read alike, the source gives them in different places.

Columns and labels:
[1] = system: NFF, neonatal foreskin fibroblasts; assay: Cell survival assay (clonogenic survival, SRB), normal cells; type: cell-based, human; details: 24 hours with compound, further growth, SRB, read-out: IC50 (μM) NFF
Experimental: (§1) The cytotoxicities of the compounds of the invention were determined by clonogenic survival of human cancer cells (MM96L, melanoma) and human normal cells (NFF, neonatal foreskin fibroblasts). Cells were incubated with the compounds at various concentrations of compound (0.01-10 μg/mL) for 24 hours, washed, and then grown for a further four days in the absence of hydroxamic acid before determining cell survival by cell count. The final readout involved staining with sulforhodamine B (SRB), a cost-effective method amenable to automation and high throughput analysis. At the technical level, “cell sensitivity” is often inferred from short term (1-2 day) observations such as apoptosis, which may not be a satisfactory model of clonogenic survival.
(§2) Cell Lines and Culture Medium. All cell lines used in this study have been described previously (Parsons et al., 1986; Todaro et al., 1980; Glenn et al., 2004). All cell lines were cultured in 10% heat-inactivated foetal calf serum (CSL, Australia) in RPMI 1640 medium supplemented with 100 U/mL penicillin, 100 μg/mL streptomycin, and 3 mM HEPES at 5% CO2, 99% humidity at 37° C. Primary human fibroblasts were obtained from neonatal foreskins and cultured in the above medium. Routine mycoplasma tests were performed using Hoechst stain^i and were always negative.
(§3) Cell Survival Assay. Cells were plated into 96-well microtitre plates at 5×10^3 cells/well, and allowed to adhere overnight. Test compounds were added to culture medium at the indicated concentrations, and plates incubated in the above conditions for 24 hours. Following this incubation period, compounds and media were removed, and replaced with fresh culture medium. Cells were then grown for a further 72 hours before assay using sulforhodamine B (SRB; Sigma, St. Louis, Mo.) as previously described. Briefly, the culture medium was removed from the 96-well microtitre plates and the plates washed twice with phosphate buffered saline (PBS), before the cells were fixed with methylated spirits for 15 minutes. The plates were then rinsed with tap water and the fixed cells stained with 50 μL/well of SRB solution (0.4% sulforhodamine B (w/v) in 1% (v/v) acetic acid) over a period of 1 hour. The SRB solution was then removed from the wells and the plates rapidly washed two times with 1% (v/v) acetic acid. Protein bound dye was then solubilised with the addition of 100 μL of 10 mM unbuffered Tris, and incubated for 15 min at 25° C. Plates were then read at 564 nm on a VERSA max tunable microplate reader (Molecular Devices, Sunnyvale, Calif.).

MM96L melanoma cells = assay: Cell survival assay (clonogenic survival, SRB); type: cell-based, human; details: for Selectivity: IC50 (NFF)/IC50 (MM96L)
Experimental: as §1, §2, §3

[2] = Homo sapiens, Fibroblast, 24 h, Table 6
[3] = Homo sapiens, MM96L, 24 h, Table 6, 24 hours with compound, further growth, SRB, read-out: IC50 (μM) MM96L
[4] = Homo sapiens, MM96L, most preferred compounds, exemplary examples, read-out: potency of IC50 against the MM96 melanoma cells
[5] = Table 6, 24 hours with compound, further growth, SRB, read-out: IC50 (μM) MM96L
[6] = Homo sapiens, Fibroblast, 24 h, Table 7
[7] = Homo sapiens, MM96L, 24 h, Table 7, 24 hours with compound, further growth, SRB, read-out: IC50 (μM) MM96L
[8] = Table 8, 24 hours with compound, further growth, SRB, read-out: IC50 (μM) MM96

| SMILES | IC50 [1, 2] | IC50 (MM96L melanoma cells; [3]) | Selectivity (MM96L melanoma cells; Table 6) | further results |
| --- | --- | --- | --- | --- |
| CN(C)c1ccc(C(=O)N[C@@H](CSCCCC(=O)NO)C(=O)Nc2cccc3ccccc23)cc1 [Example 65] | 5.9 ± 0.7 µM | 1.3 ± 0.1 µM | 4.5 | – |
| CN(C)c1ccc(C(=O)N[C@@H](CSCCCC(=O)NO)C(=O)Nc2cccc3c2CCCC3)cc1 [Example 66] | 2.2 ± 0.3 µM | 0.5 ± 0.1 µM | 4.4 | IC50 (MM96L melanoma cells; [4]): ≤ 0.5 µM |
| CN(C)c1ccc(C(=O)N[C@@H](CSCCCC(=O)NO)C(=O)Nc2cccc3cccnc23)cc1 [Example 68] | 3 ± 0.3 µM | 0.61 ± 0.08 µM | 5.0 | – |
| CN(C)c1ccc(C(=O)N[C@@H](CSCCCC(=O)NO)C(=O)Nc2cccc3scnc23)cc1 [Example 69] | 3.3 ± 0.3 µM | 1.3 ± 0.1 µM | 2.5 | – |
| CN(C)c1ccc(C(=O)N[C@@H](CSCCCC(=O)NO)C(=O)Nc2cccc3cc4ccccc4cc23)cc1 [Example 71] | 2.2 ± 0.3 µM | 1.7 ± 0.3 µM | 1.3 | – |
| CN(C)c1ccc(C(=O)N[C@@H](CSCCCC(=O)NO)C(=O)Nc2ccc3cc4ccccc4cc3c2)cc1 [Example 72] | 1.14 ± 0.06 µM | 0.55 ± 0.07 µM | 2.1 | – |
| CN(C)c1ccc(C(=O)N[C@@H](CSCCCC(=O)NO)C(=O)NCc2ccccc2)cc1 [Example 73] | 0.35 ± 0.07 µM | 0.14 ± 0.09 µM | 2.5 | – |
| CN(C)c1ccc(C(=O)N[C@@H](CSCCCC(=O)NO)C(=O)N(Cc2ccccc2)Cc2ccccc2)cc1 [Example 74] | 15.3 ± 0.6 µM | 2.3 ± 0.2 µM | 6.5 | – |
| CN(C)c1ccc(C(=O)N[C@@H](CSCCCC(=O)NO)C(=O)NCc2cccc3ccccc23)cc1 [Example 75] | 0.42 ± 0.05 µM | 0.2 ± 0.02 µM | 2.1 | – |
| CN(C)c1ccc(C(=O)N[C@@H](CSCCCC(=O)NO)C(=O)N[C@H](c2ccccc2)[C@@H](O)c2ccccc2)cc1 [Example 76] | – | – | 4.3 | IC50 ([1]; Table 6): 9 ± 3 µM; IC50 (MM96L melanoma cells; [5]): 2.1 ± 0.2 µM |
| CN(C)c1ccc(C(=O)N[C@@H](CSCCCC(=O)NO)C(=O)Nc2ccncc2)cc1 [Example 77] | 7.2 ± 0.8 µM | 1.8 ± 0.2 µM | 4.1 | – |
| Cc1ccnc(NC(=O)[C@H](CSCCCC(=O)NO)NC(=O)c2ccc(N(C)C)cc2)c1 [Example 79] | 11.2 ± 0.7 µM | 1.12 ± 0.06 µM | 10.0 | – |
| CN(C)c1ccc(C(=O)N[C@@H](CSCCCC(=O)NO)C(=O)NCc2ccncc2)cc1 [Example 80] | 14 ± 1 µM | 2.2 ± 0.3 µM | 6.2 | – |
| CN(C)c1ccc(C(=O)N[C@@H](CSCCCC(=O)NO)C(=O)NCc2cccnc2)cc1 [Example 81] | 8.8 ± 0.5 µM | 1.49 ± 0.09 µM | 5.9 | – |
| CN(C)c1ccc(C(=O)N[C@@H](CSCCCC(=O)NO)C(=O)NCc2ccccn2)cc1 [Example 82] | 6.5 ± 0.3 µM | 1.2 ± 0.1 µM | 5.5 | – |
| CN(C)c1ccc(C(=O)N[C@@H](CSCCCC(=O)NO)C(=O)NCCc2ccccc2)cc1 [Example 83] | – | – | 1.9 | IC50 ([1]; Table 6): 2.7 ± 0.3 µM; IC50 (MM96L melanoma cells; [5]): 1.4 ± 0.1 µM |
| CN(C)c1ccc(C(=O)N[C@@H](CSCCCC(=O)NO)C(=O)NCCc2ccccc2Br)cc1 [Example 84] | – | – | 4.7 | IC50 ([1]; Table 6): 3.3 ± 0.3 µM; IC50 (MM96L melanoma cells; [5]): 0.7 ± 0.2 µM |
| CN(C)c1ccc(C(=O)N[C@@H](CSCCCC(=O)NO)C(=O)NCCc2cccc(Br)c2)cc1 [Example 85] | – | – | 3.4 | IC50 ([1]; Table 6): 3.1 ± 0.1 µM; IC50 (MM96L melanoma cells; [5]): 0.9 ± 0.1 µM |
| CN(C)c1ccc(C(=O)N[C@@H](CSCCCC(=O)NO)C(=O)NCCc2ccc(Br)cc2)cc1 [Example 86] | – | – | 2.6 | IC50 ([1]; Table 6): 2.6 ± 0.3 µM; IC50 (MM96L melanoma cells; [5]): 1 ± 0.1 µM |

| SMILES | IC50 [1, 2] | IC50 (MM96L melanoma cells; [3]) | Selectivity (MM96L melanoma cells; Table 6) | further results |
| --- | --- | --- | --- | --- |
| CN(C)c1ccc(C(=O)N[C@@H](CSCCCC(=O)NO)C(=O)NC2(Cc3ccccc3)CCCC2)cc1 [Example 87] | – | – | 7.0 | IC50 ([1]; Table 6): 4.2 ± 0.5 µM; IC50 (MM96L melanoma cells; [5]): 0.6 ± 0.1 µM |
| CN(C)c1ccc(C(=O)N[C@@H](CSCCCC(=O)NO)C(=O)NCC2CCCCC2)cc1 [Example 88] | 3.6 ± 0.2 µM | 0.51 ± 0.09 µM | 7.1 | – |
| CN(C)c1ccc(C(=O)N[C@@H](CSCCCC(=O)NO)C(=O)NC2CCCC2)cc1 [Example 89] | 2.6 ± 0.3 µM | 1.5 ± 0.1 µM | 1.7 | – |
| CN(C)c1ccc(C(=O)N[C@@H](CSCCCC(=O)NO)C(=O)NC2CCN(Cc3ccccc3)CC2)cc1 [Example 90] | 1.28 ± 0.08 µM | 1.5 ± 0.2 µM | 0.9 | – |
| CN(C)c1ccc(C(=O)N[C@@H](CSCCCC(=O)NO)C(=O)N2CCCCC2)cc1 [Example 91] | 20 ± 2 µM | 4.9 ± 0.3 µM | 4.2 | – |
| CN(C)c1ccc(C(=O)N[C@@H](CSCCCC(=O)NO)C(=O)NC23CC4CC(CC(C4)C2)C3)cc1 [Example 92] | 7.1 ± 0.5 µM | 1.48 ± 0.08 µM | 4.8 | – |
| CN(C)c1ccc(C(=O)NC(CSCCCC(=O)NO)C(=O)NC(C)(C)C)cc1 (centres unmarked) [Example 96] | – | – | 5.0 | IC50 ([1]; Table 6): 3.5 ± 0.5 µM; IC50 (MM96L melanoma cells; [5]): 0.7 ± 0.2 µM |
| O=C(/C=C/c1ccccc1)N[C@@H](CSCCCC(=O)NO)C(=O)Nc1ccncc1 [Example 97] | – | – | – | IC50 [1, 6]: 1.6 ± 0.3 µM; IC50 (MM96L melanoma cells; [7]): 0.5 ± 0.2 µM; Selectivity (MM96L melanoma cells; Table 7): 3.3 |
| O=C(/C=C/c1ccccc1)N[C@@H](CSCCCC(=O)NO)C(=O)Nc1cccnc1 [Example 98] | – | – | – | IC50 [1, 6]: 6.4 ± 0.8 µM; IC50 (MM96L melanoma cells; [7]): 1.2 ± 0.3 µM; Selectivity (MM96L melanoma cells; Table 7): 5.2 |
| Cc1ccnc(NC(=O)[C@H](CSCCCC(=O)NO)NC(=O)/C=C/c2ccccc2)c1 [Example 99] | – | – | – | IC50 [1, 6]: 4 ± 0.6 µM; IC50 (MM96L melanoma cells; [7]): 0.6 ± 0.2 µM; Selectivity (MM96L melanoma cells; Table 7): 6.5 |
| O=C(/C=C/c1ccccc1)N[C@@H](CSCCCC(=O)NO)C(=O)NCc1ccncc1 [Example 100] | – | – | – | IC50 [1, 6]: 1.6 ± 0.2 µM; IC50 (MM96L melanoma cells; [7]): 0.34 ± 0.02 µM; IC50 (MM96L melanoma cells; [4]): ≤ 0.5 µM; Selectivity (MM96L melanoma cells; Table 7): 4.8 |
| O=C(/C=C/c1ccccc1)N[C@@H](CSCCCC(=O)NO)C(=O)NCc1cccnc1 [Example 101] | – | – | – | IC50 [1, 6]: 13.2 ± 0.7 µM; IC50 (MM96L melanoma cells; [7]): 0.9 ± 0.2 µM; Selectivity (MM96L melanoma cells; Table 7): 15.1 |
| O=C(/C=C/c1ccccc1)N[C@@H](CSCCCC(=O)NO)C(=O)NCc1ccccn1 [Example 102] | – | – | – | IC50 [1, 6]: 4.2 ± 0.4 µM; IC50 (MM96L melanoma cells; [7]): 0.8 ± 0.3 µM; Selectivity (MM96L melanoma cells; Table 7): 5.3 |
| CC(C)NC(=O)c1ccc(CNC(=O)[C@H](CSCCCC(=O)NO)NC(=O)c2ccc(N(C)C)cc2)cc1 [Example 103] | – | – | – | IC50 ([1]; Table 8): 10.1 µM; IC50 (MM96L melanoma cells; [8]): 1.38 µM; Selectivity (MM96L melanoma cells; Table 8): 7.30 |
| CC(C)CNC(=O)c1ccc(CNC(=O)[C@H](CSCCCC(=O)NO)NC(=O)c2ccc(N(C)C)cc2)cc1 [Example 104] | – | – | – | IC50 ([1]; Table 8): 8.08 µM; IC50 (MM96L melanoma cells; [8]): 1.62 µM; Selectivity (MM96L melanoma cells; Table 8): 5.0 |
| CN(C)c1ccc(C(=O)N[C@@H](CSCCCC(=O)NO)C(=O)NCc2ccc(C(=O)NCCCCCCO)cc2)cc1 [Example 105] | – | – | – | IC50 ([1]; Table 8): 17 µM; IC50 (MM96L melanoma cells; [8]): 4.26 µM; Selectivity (MM96L melanoma cells; Table 8): 4.0 |
| CN(C)c1ccc(C(=O)N[C@@H](CSCCCC(=O)NO)C(=O)NCc2ccc(C(=O)NCc3ccccc3)cc2)cc1 [Example 106] | – | – | – | IC50 ([1]; Table 8): 11.8 µM; IC50 (MM96L melanoma cells; [8]): 1.18 µM; Selectivity (MM96L melanoma cells; Table 8): 10.0 |
| CN(C)c1ccc(C(=O)N[C@@H](CSCCCC(=O)NO)C(=O)NCc2ccc(C(=O)Nc3ccncc3)cc2)cc1 [Example 107] | – | – | – | IC50 ([1]; Table 8): 16.9 µM; IC50 (MM96L melanoma cells; [8]): 2.96 µM; Selectivity (MM96L melanoma cells; Table 8): 5.7 |
| CN(C)c1ccc(C(=O)N[C@@H](CSCCCC(=O)NO)C(=O)NCc2ccc(C(=O)NCc3ccccn3)cc2)cc1 [Example 108] | – | – | – | IC50 ([1]; Table 8): 16.9 µM; IC50 (MM96L melanoma cells; [8]): 2.28 µM; Selectivity (MM96L melanoma cells; Table 8): 7.4 |
